# From patent publication US6642177B1, “Sarcoslnates as glufosinate adjuvants” (Hampshire Chemical Corp., priority 1998, dated 2003)
# Tests used:
# Assay type in all cases: in vivo
# [1] = system: Setia = Foxtail., Giant - setaria; experiment: % control of giant foxtail 27 days after treatment; details: rate 0.32 lbs. ai/A
# [2] = system: Porol = Purslane, Common - Portulaca oleraca; experiment: % control of common purslane 27 days after treatment; details: rate 0.32 lbs. ai/A
# [3] = system: Amabl = Pigweed, Prostrate - Amaranthus blitoides; experiment: % control of prostrate pigweed 27 days after treatment; details: rate 0.32 lbs. ai/A
# [4] = system: Polpy = Smartweed, Pennsylvania - Polygonium pensylvanicum; experiment: % control of Pennsylvania smartweed 27 days after treatment; details: rate 0.32 lbs. ai/A
# [5] = system: Setiu + Foxtail, Yellow - Sataria Leutescens; experiment: % control of yellow foxtail 27 days after treatment; details: rate 0.32 lbs. ai/A
# [6] = system: Plant Species (Setia, Porol, Amabl, Polpy, Sotlu); nuisance weeds; experiment: % control over the five plant species (total, average) 27 days after treatment; details: rate 0.32 lbs. ai/A
# [7] = system: glufosinate tolerant field corn variety Pioneer 34A55; experiment: Phytotoxicity rating on glufosinate tolerant field corn (chlorosis, necrosis, abnormal growth); details: 1.46 Lbs ai/acre, 10 ml into the whorl
# Protocol: Seeds were germinated in 4 inch pots and maintained for one month with regular watering and temperatures to simulate field conditions. […] Each treatment was replicated four times in a randomized complete block design. […] The volume of 10 ml was selected to fill the whorl of the largest plant in the study, all others were filled to running over.
# An application volume of 15 gal/acre was used to determine the mix concentration used.
# The treatments were evaluated for phytotoxicity in the form of chlorosis, necrosis and abnormal growth by visually inspecting each plant. When damage was present, each plant was given a damage rating from 0 to 10 with 0 indicating no effect and 10 indicating death.
substance,measurement,setting,value
2-amino-4-(hydroxymethyl phosphinyl) butanoic acid [Glufosinate],"% Control 27 Days After Treatment, Setia",[1],61.67%
same,"% Control 27 Days After Treatment, Porol",[2],78.33%
same,"% Control 27 Days After Treatment, Amabl",[3],73.33%
same,"% Control 27 Days After Treatment, Polpy",[4],81.67%
same,"% Control 27 Days After Treatment, Sotlu",[5],60.00%
same,"% Control 27 Days After Treatment, Average",[6]; average over five plant species,71.00%
same,"% Control 27 Days After Treatment, Total",[6]; sum over five plant species,355.00%
same,"Ratings 20 days after treatment (damage rating 0 to 10, 0 no effect, 10 death)",[7],0.8 b
